Experimental data reported in ChEMBL document CHEMBL1201862, “PubChem BioAssay data set” (2004).
The source made the active and inactive calls.

Columns and labels:
[1] = molecular target: Mitogen-activated protein kinase 10 (Homo sapiens, UniProt P53779); assay: Dose response biochemical screening assay for inhibitors of c-Jun N-Terminal Kinase 3 (JNK3). [Related pubchem assays: 746 ]
[2] = Luminescent dose response cell-based high throughput screening assay for inhibitors of the Janus kinase 2 mutant JAK2V617F. [Related pubchem assays: 1446 (Primary screen.), 1521 (Confirmation assay.), 1486 (Counter screen.)]; format: functional
[3] = molecular target: T1, Ubiquitin-conjugating enzyme E2 N (Homo sapiens, UniProt P61088); format: functional;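 also: Dose-response confirmation in a TR-FRET assay detecting UBC13-driven polyubiquitin chain formation, inhibition measured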
T1 sequence (P61088 whole entry): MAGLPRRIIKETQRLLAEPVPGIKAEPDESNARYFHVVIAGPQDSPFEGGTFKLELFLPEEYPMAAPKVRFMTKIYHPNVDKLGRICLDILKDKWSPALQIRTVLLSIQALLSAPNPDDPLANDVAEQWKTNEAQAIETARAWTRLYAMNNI

Vero [4] = assay: mammalian cell viability reduction – secondary assay, cytotoxicity control for West Nile virus antiviral project, dose response (AID 1650); format: functional; settings: Chlorocebus sabaeus
[5] = Luminescence Cell-Based Dose Response HTS to Identify Activators of Luciferase Translation or Activity in H4 […] Cells. [Related pubchem assays: 1829 (Project Summary), 1814 (Primary HTS)]; format: functional
Vero [6] = assay: inhibition of WNV-induced cytopathic effect – cell-based, CPE readout (AID 1621); format: functional; settings: Chlorocebus sabaeus
[7] = Luminescence Cell-Based Dose Confirmation HTS to Identify Activators of 5'UTR Stem-Loop Driven Alpha-Synuclein mRNA Translation in H4 Neuroglioblastoma Cells. [Related pubchem assays: 1829 (Project Summary), 1814 (Primary HTS)]; format: functional
[8] = molecular target: T2, Microphthalmia-associated transcription factor (Homo sapiens, UniProt O75030); assay: reducers of TRPM1 reporter luminescence, concentration series – cell-based, SK-MEL-5, cherry-picked, set 3, MITF inhibitor project, dose response (AID 493073); format: functional;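 also: SK-MEL-5 melanoma cells with luciferase driven by the MITF target TRPM1 promoter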
T2 sequence (O75030 whole entry): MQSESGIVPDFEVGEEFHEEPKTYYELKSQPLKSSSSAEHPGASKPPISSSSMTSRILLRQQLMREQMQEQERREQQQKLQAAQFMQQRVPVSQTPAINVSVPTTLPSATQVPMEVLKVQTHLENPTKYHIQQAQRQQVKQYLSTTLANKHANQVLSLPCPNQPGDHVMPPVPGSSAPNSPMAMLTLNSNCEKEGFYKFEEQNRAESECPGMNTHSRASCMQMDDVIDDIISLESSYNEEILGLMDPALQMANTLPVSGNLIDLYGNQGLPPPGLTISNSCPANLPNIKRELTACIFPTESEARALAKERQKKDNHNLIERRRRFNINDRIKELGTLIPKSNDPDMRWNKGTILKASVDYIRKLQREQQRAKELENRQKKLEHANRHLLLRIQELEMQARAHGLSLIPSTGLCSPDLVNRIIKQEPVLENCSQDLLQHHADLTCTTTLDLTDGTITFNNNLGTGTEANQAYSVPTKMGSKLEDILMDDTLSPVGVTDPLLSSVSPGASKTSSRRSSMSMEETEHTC

H4 = assay: Luminescence Cell-Based Dose Response HTS to Identify Activators of 5'UTR Stem-Loop Driven Prion Protein mRNA Translation in H4 Neuroglioblastoma Cells. [Related pubchem assays: 1829 (Project Summary), 1814 (Primary HTS)]; format: functional; settings: Homo sapiens
[9] = viability inhibitors of stage V gametocytes – luminescence, dose response (AID 1117278); format: functional, cell-based;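 also: gametocytes exposed to compound for 24 hours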
[10] = viability loss in human Jurkat cells – cell-based, luminescence, cytotoxicity control for P. falciparum gametocyte viability project, dose response (AID 1117277); format: functional;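 also: potency reflects loss of cellular ATP meaning fewer viable cells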
Protein Tat = Protein Tat (Human immunodeficiency virus type 1 group M subtype B (isolate HXB2)(HIV-1), UniProt P04608); format: functional;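 also: tat binding to TAR RNA read out by fluorescence polarization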
Sequence of Protein Tat (P04608 whole entry): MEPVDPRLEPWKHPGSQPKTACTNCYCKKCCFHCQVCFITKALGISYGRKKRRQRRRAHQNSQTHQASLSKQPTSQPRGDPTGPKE

BJ [11] = assay: BJ-TERT fibroblast viability loss – cell-based, RAS-independent, luminescence, dose response (AID 1933); format: functional, Homo sapiens; settings: Homo sapiens, BJ
BJ [12] = assay: cells; format: functional, cell-based, Homo sapiens; settings: Homo sapiens, BJ
[13] = viability loss in THP-1 monocytes – THP-1 cells, cytotoxicity control for Vif-APOBEC3G degradation inhibitor project, dose response (AID 1117359); format: functional; settings: THP-1
[14] = DRD fibroblast viability loss – cell-based, non-viral oncogenic, luminescence, dose response (AID 1934); format: functional; settings: Homo sapiens
BJ [15] = assay: BJ-TERT-LT-ST fibroblast viability loss – cell-based, RAS-independent, luminescence, dose response (AID 1935); format: functional, Homo sapiens; settings: Homo sapiens, BJ;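 also: BJ fibroblasts immortalized with TERT plus LT and ST oncogenes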
[16] = molecular target: Neurotensin receptor type 1 (Homo sapiens, UniProt P30989); format: functional;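 also: Image-based confirmatory dose-response assay measuring agonist activity at NTR1; NTR1-expressing U2OS osteosarcoma cells imaged for beta-arrestin GFP spot formation; agonist potency where compounds increase beta-arrestin recruitment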
Sequence of Neurotensin receptor type 1 (P30989 whole entry): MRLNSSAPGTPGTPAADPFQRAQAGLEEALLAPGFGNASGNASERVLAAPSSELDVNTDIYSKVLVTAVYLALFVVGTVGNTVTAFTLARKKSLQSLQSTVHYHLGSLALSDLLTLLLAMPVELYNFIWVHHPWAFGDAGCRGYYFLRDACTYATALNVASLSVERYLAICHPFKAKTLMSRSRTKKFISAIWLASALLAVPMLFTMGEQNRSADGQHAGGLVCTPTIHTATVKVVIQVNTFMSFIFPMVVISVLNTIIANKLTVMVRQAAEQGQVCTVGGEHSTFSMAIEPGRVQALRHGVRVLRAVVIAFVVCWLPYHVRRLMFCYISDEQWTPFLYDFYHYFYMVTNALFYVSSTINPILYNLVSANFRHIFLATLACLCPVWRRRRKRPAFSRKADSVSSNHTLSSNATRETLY

Large T antigen = Large T antigen (Simian virus 40, UniProt P03070); format: functional, Betapolyomavirus macacae;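 also: Confirmatory-stage PubChem screen for compounds that inhibit SV40 T antigen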
Sequence of Large T antigen (P03070 whole entry): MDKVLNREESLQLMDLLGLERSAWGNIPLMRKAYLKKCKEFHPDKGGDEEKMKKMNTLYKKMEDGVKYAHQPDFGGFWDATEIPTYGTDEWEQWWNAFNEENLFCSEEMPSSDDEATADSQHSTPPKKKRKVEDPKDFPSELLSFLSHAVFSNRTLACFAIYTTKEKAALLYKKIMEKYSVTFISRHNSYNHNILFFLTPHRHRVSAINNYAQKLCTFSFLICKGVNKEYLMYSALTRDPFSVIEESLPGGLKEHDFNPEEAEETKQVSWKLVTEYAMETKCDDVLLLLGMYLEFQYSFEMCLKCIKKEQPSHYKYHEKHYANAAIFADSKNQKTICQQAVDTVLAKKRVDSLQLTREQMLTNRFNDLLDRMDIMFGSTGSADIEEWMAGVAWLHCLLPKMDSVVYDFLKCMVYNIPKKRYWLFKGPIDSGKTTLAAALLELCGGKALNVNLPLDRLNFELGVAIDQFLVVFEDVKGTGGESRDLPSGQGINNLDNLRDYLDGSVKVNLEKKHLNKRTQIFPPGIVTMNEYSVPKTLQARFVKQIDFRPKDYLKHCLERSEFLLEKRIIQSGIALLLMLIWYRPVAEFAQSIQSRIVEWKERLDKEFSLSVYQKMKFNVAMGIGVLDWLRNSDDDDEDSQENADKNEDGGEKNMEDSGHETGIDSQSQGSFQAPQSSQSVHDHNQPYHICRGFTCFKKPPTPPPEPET

[17] = Luminescence Cell-Based Dose Confirmation to Identify Activators of 5'UTR Stem-Loop Driven Alpha-Synuclein mRNA Translation in H4 Neuroglioblastoma Cells. [Related pubchem assays: 1829 (Project Summary), 1814 (Primary HTS)]; format: functional
[18] = Luminescence Cell-Based Dose Response to Identify Activators of 5'UTR Stem-Loop Driven Prion Protein mRNA Translation in H4-C Neuroglioblastoma Cells. [Related pubchem assays: 1829 (Project Summary), 1814 (Primary HTS)]; format: functional
[19] = Luminescence Cell-Based Dose Response to Identify Activators of Luciferase Translation or Activity in H4-C Neuroglioblastoma Cells. [Related pubchem assays: 1829 (Project Summary), 1814 (Primary HTS)]; format: functional
Genome polyprotein = Genome polyprotein (dengue virus type 2, UniProt P29990); assay: flavivirus cap methylation enzyme inhibition – biochemical, confirmation dose response, primary screen (AID 588689); format: functional
Sequence of Genome polyprotein (P29990 2492-3391 limits assumed): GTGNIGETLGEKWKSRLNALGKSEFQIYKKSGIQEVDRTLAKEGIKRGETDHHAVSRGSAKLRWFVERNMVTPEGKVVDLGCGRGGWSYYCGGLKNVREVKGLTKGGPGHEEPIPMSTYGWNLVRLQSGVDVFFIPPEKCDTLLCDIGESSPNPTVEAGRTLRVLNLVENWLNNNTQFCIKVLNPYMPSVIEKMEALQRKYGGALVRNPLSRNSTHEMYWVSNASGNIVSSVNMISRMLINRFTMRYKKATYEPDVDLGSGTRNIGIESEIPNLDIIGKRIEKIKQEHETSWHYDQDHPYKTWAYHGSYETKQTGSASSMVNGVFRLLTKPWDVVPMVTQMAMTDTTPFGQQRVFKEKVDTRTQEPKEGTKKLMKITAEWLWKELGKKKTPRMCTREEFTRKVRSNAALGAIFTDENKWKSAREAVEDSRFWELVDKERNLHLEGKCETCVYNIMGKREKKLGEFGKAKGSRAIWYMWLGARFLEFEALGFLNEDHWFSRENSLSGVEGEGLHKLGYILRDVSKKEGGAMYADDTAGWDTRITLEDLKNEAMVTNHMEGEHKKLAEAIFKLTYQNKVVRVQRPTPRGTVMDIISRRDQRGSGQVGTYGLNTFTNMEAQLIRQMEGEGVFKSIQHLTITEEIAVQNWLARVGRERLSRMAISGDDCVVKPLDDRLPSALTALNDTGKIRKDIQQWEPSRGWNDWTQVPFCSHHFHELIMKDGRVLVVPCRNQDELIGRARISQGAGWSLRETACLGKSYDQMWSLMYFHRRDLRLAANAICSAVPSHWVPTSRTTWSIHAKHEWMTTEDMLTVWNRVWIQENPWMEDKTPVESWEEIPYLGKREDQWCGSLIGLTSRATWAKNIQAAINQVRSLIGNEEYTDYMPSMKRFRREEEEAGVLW

[20] = molecular target: T3, Zinc finger protein mex-5 (Caenorhabditis elegans, UniProt Q9XUB2); assay: potency of MEX-5 RNA-binding blockers – biochemical, C. elegans, fluorescence polarization, dose response (AID 1960)
T3 sequence (Q9XUB2 whole entry): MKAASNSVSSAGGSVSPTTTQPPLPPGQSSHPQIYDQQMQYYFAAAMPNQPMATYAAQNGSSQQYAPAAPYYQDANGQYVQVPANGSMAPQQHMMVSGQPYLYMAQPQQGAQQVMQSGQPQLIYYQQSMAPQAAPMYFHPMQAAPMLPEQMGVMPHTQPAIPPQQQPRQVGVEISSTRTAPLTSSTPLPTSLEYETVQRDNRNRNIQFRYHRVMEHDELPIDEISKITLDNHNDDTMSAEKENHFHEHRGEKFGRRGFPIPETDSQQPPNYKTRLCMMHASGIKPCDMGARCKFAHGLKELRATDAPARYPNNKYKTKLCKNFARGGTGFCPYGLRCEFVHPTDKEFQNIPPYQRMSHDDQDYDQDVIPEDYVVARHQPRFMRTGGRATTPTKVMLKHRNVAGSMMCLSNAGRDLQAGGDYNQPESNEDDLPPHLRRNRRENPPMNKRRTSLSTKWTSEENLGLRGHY

[21] = molecular target: T4, RNA-binding protein pos-1 (Caenorhabditis elegans, UniProt G5EF15); assay: disruptors of C. elegans POS-1 RNA interaction – biochemical, fluorescence polarization, dose response (AID 1964);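 also: purified POS-1 fused to maltose binding protein made in E. coli; potency of compounds blocking POS-1 binding to fluorescent RNA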
T4 sequence (G5EF15 whole entry): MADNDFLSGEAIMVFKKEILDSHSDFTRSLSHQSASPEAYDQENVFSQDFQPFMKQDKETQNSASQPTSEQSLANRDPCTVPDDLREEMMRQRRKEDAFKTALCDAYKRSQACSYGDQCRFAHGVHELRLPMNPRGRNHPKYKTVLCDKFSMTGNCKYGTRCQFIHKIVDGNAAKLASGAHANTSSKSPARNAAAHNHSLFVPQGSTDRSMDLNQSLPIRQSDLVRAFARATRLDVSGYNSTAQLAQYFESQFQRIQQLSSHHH

Sequence of Mitogen-activated protein kinase 10 (P53779 whole entry): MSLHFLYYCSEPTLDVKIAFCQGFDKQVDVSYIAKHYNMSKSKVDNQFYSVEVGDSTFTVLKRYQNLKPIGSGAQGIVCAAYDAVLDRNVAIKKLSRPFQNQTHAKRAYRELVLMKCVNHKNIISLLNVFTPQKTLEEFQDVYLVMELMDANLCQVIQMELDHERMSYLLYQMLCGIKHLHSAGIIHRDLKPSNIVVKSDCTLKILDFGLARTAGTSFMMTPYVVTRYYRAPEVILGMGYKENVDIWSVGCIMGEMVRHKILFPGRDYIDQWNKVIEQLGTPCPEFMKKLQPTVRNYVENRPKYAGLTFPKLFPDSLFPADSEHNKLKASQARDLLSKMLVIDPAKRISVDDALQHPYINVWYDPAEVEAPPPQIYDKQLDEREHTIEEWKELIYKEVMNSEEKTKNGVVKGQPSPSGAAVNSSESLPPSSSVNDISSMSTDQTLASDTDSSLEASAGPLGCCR

## O=C(Cn1cnc2ccccc2c1=O)Nc1ccc(-c2nnc3n2CCCCC3)cc1
[1]
  IC50: 29.5 µM (not active)

## CC(C)C1C(C#N)=C(N)Oc2[nH]nc(-c3ccc4ccccc4c3)c21 (stereo not given)
[2]
  IC50: 2.41 µM (active)

## CCCCN(CC)CCCNC(=O)c1cc2c(=O)n(CC)c3ccccc3c2s1
[3]
  IC50: > 20 µM (inactive)
Vero [4]
  CC50: 24.3 µM (active)
[5]
  EC50: 13.6 µM (active)
Vero [6]
  IC50: 22.7 µM (active)
[7]
  EC50: 73.6 µM (active)
[8]
  AC50: 21.6 µM (active)
H4
  EC50: 11.7 µM (active)

## CC(=O)c1cccc(CN2CCN(C3CCCCC3)C(CCO)C2)c1 (stereo not given)
[9]
  IC50: > 109 µM (inactive)
[10]
  IC50: > 83.3 µM (inactive)

## Cc1occc1-c1nnc(SCC(=O)N2CCN(c3ccccc3)CC2)n1C
Protein Tat
  IC50: > 100 µM (active)

## Cc1ccc(C)c(N2CCN(C(=O)Cc3ccc(-n4c(=O)[nH]c5ccsc5c4=O)cc3)CC2)c1
[9]
  IC50: > 109 µM (inactive)
[10]
  IC50: > 83.2 µM (inactive)

## O=C1NC(=O)N(c2ccccc2)C(=O)/C1=C\C=C\c1ccccc1
BJ [11]
  EC50: 2.79 µM (inconclusive)
BJ [12]
  EC50: > 150 µM (inconclusive)
[13]
  CC50: 13 µM (active)
[5]
  EC50: 8.73 µM (active)
[14]
  EC50: 4.66 µM (inconclusive)
[7]
  EC50: > 120 µM (not active)
BJ [15]
  EC50: 4.12 µM (inconclusive)
[16]
  EC50: 15.1 µM (active)
Large T antigen
  IC50: 95.6 µM (active)
H4
  EC50: > 120 µM (not active)

## O=C(Nc1ccc(CN2CCOCC2)cc1)c1ccc(Cl)cc1
[5]
  EC50: 4.65 µM (active)
[17]
  EC50: > 12 µM (not active)
[18]
  EC50: 0.685 µM (active)
[7]
  EC50: < 0.1 µM (active)
[19]
  EC50: 0.951 µM (active)
H4
  EC50: 16.1 µM (active)

## COc1cc(C(c2c(C(=O)O)[nH]c3ccccc23)c2c(C(=O)O)[nH]c3ccccc23)ccc1OCc1ccccc1
Genome polyprotein
  IC50: 16 µM (active)
[20]
  EC50: 24.5 µM (active)
cells
  AC50: 7.4 µM (active)
[21]
  EC50: 47.7 µM (active)

## CCN1CCN(CCCNC(=O)C2CCCN(c3nc4c(C)cc(C)cc4s3)C2)CC1 (stereo not given)
Vero [6]
  IC50: 24.8 µM (active)
